Data from patent publication US12384800B2, “Antitumoral compounds” (priority 2017, dated 2025).

Experiments:
HT1080 tumors = assay: Human fibrosarcoma xenograft, total diameter (tumor + leg)
[1] = MTD (Maximum Tolerated Dose) determination, single iv administration; assay type: in vivo; settings: mice; iv/SD (single dose); monitored up to 14 days
Text: (§1) Female CD-1 or Athymic Nude-Fox1 nu/nu mice (Envigo) were utilized for all experiments. […] Animals were acclimated for five days prior to being individually tattoo-identified. Animal protocols were reviewed and approved according to the regional Institutional Animal Care and Use Committees.
(§2) Mice were randomly allocated into experimental groups and intravenously administered, once for the MTD (Maximum Tolerated Dose) determination or one administration a week during three consecutive weeks, for the MTMD (Maximum Tolerated Multiple Dose) determination study. The animals were administered with white formulation or with compound dissolved in the experimental formulation at different concentrations. The volume administered was always […]. Once administered, animals were monitored for clinical signs of systemic toxicity, changes in body weight and mortality up to 14 days after the administration.

[2] = MTMD (Maximum Tolerated Multiple Dose) determination, iv weekly x 3; assay type: in vivo; settings: mice; iv/Q7d × 3
Text: as §1, §2

[3] = system: MDA-MB-231 cells (breast adenocarcinoma); assay: cells; settings: MDA-MB-231, SRB; for GI50: 72 hours treatment; for TGI: total cell growth inhibition; for TGI / CC50: 72 hours; for CC50: read-out: LC50, 50% net cell killing
Text: (§3) The aim of this assay is to evaluate the in vitro cytostatic (ability to delay or arrest tumor cell growth) or cytotoxic (ability to kill tumor cells) activity of the samples being tested.
(§4) A colorimetric assay, using sulforhodamine B (SRB) reaction has been adapted to provide a quantitative measurement of cell growth and viability (following the technique described by Skehan et al. J. Natl. Cancer Inst. 1990, 82, 1107-1112). Another colorimetric assay based on 3-(4,5-Dimethylthiazol-2-yl)-2,5-diphenyltetrazolium bromide (MTT) reduction to a purple formazan has been also used to assess the antiproliferative activity (following the technique described by Mosmann et al. J. Immunol. Meth. 1983, 65, 55-63).
(§5) These forms of assays employ 96-well cell culture microplates following the standards of the American National Standards Institute and the Society for Laboratory Automation and Screening (ANSI SLAS 1-2004 (R2012) Oct. 12, 2011. All the cell lines used in this study were obtained from the American Type Culture Collection (ATCC) and derive from different types of human cancer.
(§6) A549, HT29, MDA-MB-231 and PSN1 cells were maintained in Dulbecco's Modified Eagle Medium (DMEM) while PC-3 and 22Rv1 cells were maintained in Roswell Park Memorial Institute Medium (RPMI). All cell lines were supplemented with 10% Fetal Bovine Serum (FBS), 2 mM L-glutamine, 100 U/mL penicillin, and 100 […] at 37° C., 5% CO2 and 98% humidity. For the experiments, cells were harvested from subconfluent cultures using trypsinization and resuspended in fresh medium before counting and plating.
(§7) A549, HT29, MDA-MB-231 and PSN1 cells were seeded in 96 well microtiter plates, at 5000 cells per well in aliquots of 150 μL, and allowed to attach to the plate surface for 18 hours (overnight) in drug free medium. After that, one control (untreated) plate of each cell line was fixed (as described below) and used for time zero reference value. Culture plates were then treated with test compounds (50 μL aliquots of 4× stock solutions in complete culture medium plus 4% DMSO) using ten ⅖ serial dilutions (concentrations ranging from 10 to 0.003 μg/mL) and triplicate cultures (1% final concentration in DMSO). After 72 hours treatment, the antitumor effect was measured by using the SRB methodology: Briefly, cells were washed twice with PBS, fixed for 15 min in 1% glutaraldehyde solution at room temperature, rinsed twice in PBS, and stained in 0.4% SRB solution for 30 min at room temperature. Cells were then rinsed several times with 1% acetic acid solution and air-dried at room temperature.
(§8) Effects on cell growth and survival were estimated by applying the NCI algorithm (Boyd M R and Paull K D. Drug Dev. Res. 1995, 34, 91-104). The values obtained in triplicate cultures were fitted by nonlinear regression to a four-parameters logistic curve by nonlinear regression analysis.

[4] = system: HT29 cells (colorectal adenocarcinoma); assay: cells; settings: HT29, SRB; for GI50: 72 hours treatment; for TGI: total cell growth inhibition; for TGI / CC50: 72 hours; for CC50: read-out: LC50, 50% net cell killing
Text: as §3, §4, §5, §6, §7, §8

[5] = system: PSN1 cells (pancreas adenocarcinoma); assay: cells; settings: PSN1, SRB; for GI50: 72 hours treatment; for TGI: total cell growth inhibition; for TGI / CC50: 72 hours; for CC50: read-out: LC50, 50% net cell killing
Text: as §3, §4, §5, §6, §7, §8

[6] = system: A549 cells (lung carcinoma, NSCLC); assay: cells; settings: A549, SRB; for GI50: 72 hours treatment; for TGI: total cell growth inhibition; for TGI / CC50: 72 hours; for CC50: read-out: LC50, 50% net cell killing
Text: as §3, §4, §5, §6, §7, §8

[7] = Day 0.0, iv Days 0, 7 and 14, compound C 3.0 mg/kg, 4-S […], 12-S […]
[8] = Day 2.0, iv Days 0, 7 and 14, compound C 3.0 mg/kg, 4-S […], 12-S […]
[9] = Day 5.0, iv Days 0, 7 and 14, compound C 3.0 mg/kg, 4-S […], 12-S […]
[10] = Day 7.0, iv Days 0, 7 and 14, compound C 3.0 mg/kg, 4-S […], 12-S […]
[11] = Day 9.0, iv Days 0, 7 and 14, compound C 3.0 mg/kg, 4-S […], 12-S […]
[12] = Day 12.0, iv Days 0, 7 and 14, compound C 3.0 mg/kg, 4-S […], 12-S […]
[13] = Day 14.0, iv Days 0, 7 and 14, compound C 3.0 mg/kg, 4-S […], 12-S […]
[14] = Day 16.0, iv Days 0, 7 and 14, compound C 3.0 mg/kg, 4-S […], 12-S […]
[15] = Day 19.0, iv Days 0, 7 and 14, compound C 3.0 mg/kg, 4-S […], 12-S […]
[16] = Day 21.0, iv Days 0, 7 and 14, compound C 3.0 mg/kg, 4-S […], 12-S […]
[17] = Day 23.0, iv Days 0, 7 and 14, compound C 3.0 mg/kg, 4-S […], 12-S […]

Structure (SMILES): COc1c(C)cc2c(c1O)[C@@H]1[C@@H]3[C@@H]4SC[C@]5(N[C@H](CO)Cc6c5[nH]c5ccccc65)C(=O)OC[C@@H](c5c6c(c(C)c(OC(C)=O)c54)OCO6)N3[C@@H](O)[C@H](C2)N1C [Compound 4-S]
- Total diameter (tumor + leg) (HT1080 tumors; [7]): 7.5 mm
- Total diameter (tumor + leg) (HT1080 tumors; [8]): 7.7 mm
- Total diameter (tumor + leg) (HT1080 tumors; [9]): 8.3 mm
- Total diameter (tumor + leg) (HT1080 tumors; [10]): 8.8 mm
- Total diameter (tumor + leg) (HT1080 tumors; [11]): 8.4 mm
- Total diameter (tumor + leg) (HT1080 tumors; [12]): 8.4 mm
- Total diameter (tumor + leg) (HT1080 tumors; [13]): 9.6 mm
- Total diameter (tumor + leg) (HT1080 tumors; [14]): 10.0 mm
- Total diameter (tumor + leg) (HT1080 tumors; [15]): 10.4 mm
- Total diameter (tumor + leg) (HT1080 tumors; [16]): 12.1 mm
- Total diameter (tumor + leg) (HT1080 tumors; [17]): 12.7 mm
- MTD [1]: 1.0 mg/kg

Structure (SMILES): COc1c(C)cc2c(c1O)[C@@H]1[C@@H]3[C@@H]4SC[C@]5(N[C@H](C)Cc6c5[nH]c5ccccc65)C(=O)OC[C@@H](c5c6c(c(C)c(OC(C)=O)c54)OCO6)N3[C@@H](O)[C@H](C2)N1C [Compound C]
- Total diameter (tumor + leg) (HT1080 tumors; Day 0): 7.5 mm
- Total diameter (tumor + leg) (HT1080 tumors; [7]): 7.5 mm
- Total diameter (tumor + leg) (HT1080 tumors; Day 2): 8.8 mm
- Total diameter (tumor + leg) (HT1080 tumors; [8]): 8.8 mm
- Total diameter (tumor + leg) (HT1080 tumors; Day 5): 9.0 mm
- Total diameter (tumor + leg) (HT1080 tumors; [9]): 9.0 mm
- Total diameter (tumor + leg) (HT1080 tumors; Day 7): 9.6 mm
- Total diameter (tumor + leg) (HT1080 tumors; [10]): 9.6 mm
- Total diameter (tumor + leg) (HT1080 tumors; Day 9): 10.2 mm
- Total diameter (tumor + leg) (HT1080 tumors; [11]): 10.2 mm
- Total diameter (tumor + leg) (HT1080 tumors; Day 12): 10.2 mm
- Total diameter (tumor + leg) (HT1080 tumors; [12]): 10.2 mm
- Total diameter (tumor + leg) (HT1080 tumors; Day 14): 11.2 mm
- Total diameter (tumor + leg) (HT1080 tumors; [13]): 11.2 mm
- Total diameter (tumor + leg) (HT1080 tumors; Day 16): 12.4 mm
- Total diameter (tumor + leg) (HT1080 tumors; [14]): 12.4 mm
- Total diameter (tumor + leg) (HT1080 tumors; Day 19): 13.3 mm
- Total diameter (tumor + leg) (HT1080 tumors; [15]): 13.3 mm
- Total diameter (tumor + leg) (HT1080 tumors; Day 21): 15.2 mm
- Total diameter (tumor + leg) (HT1080 tumors; [16]): 15.2 mm
- Total diameter (tumor + leg) (HT1080 tumors; Day 23): 18.0 mm
- Total diameter (tumor + leg) (HT1080 tumors; [17]): 18.0 mm
- MTMD [2]: 3.0 mg/kg
- GI50 [3]: 26 nM
- TGI [3]: 5.46E−08 Molar
- CC50 [3]: > 130 nM
- GI50 [4]: 20.8 nM
- TGI [4]: 2.34E−08 Molar
- CC50 [4]: > 130 nM
- GI50 [5]: 36.4 nM
- TGI [5]: 4.42E−08 Molar
- CC50 [5]: 65 nM
- GI50 [6]: 27.3 nM
- TGI [6]: 6.63E−08 Molar
- CC50 [6]: > 130 nM

Structure (SMILES): COc1c(C)cc2c(c1O)[C@@H]1[C@@H]3[C@@H]4SC[C@]5(N[C@@H](C)Cc6c5[nH]c5ccccc65)C(=O)OC[C@@H](c5c6c(c(C)c(OC(C)=O)c54)OCO6)N3[C@@H](O)[C@H](C2)N1C [Compound D]
- Total diameter (tumor + leg) (HT1080 tumors; Day 0): 7.5 mm
- Total diameter (tumor + leg) (HT1080 tumors; Day 0, iv Days 0, 7 and 14, PM01183 […], Compound D 0.5 mg/kg): 7.7 mm
- Total diameter (tumor + leg) (HT1080 tumors; Day 2): 8.2 mm
- Total diameter (tumor + leg) (HT1080 tumors; Day 2, iv Days 0, 7 and 14, PM01183 […], Compound D 0.5 mg/kg): 9.5 mm
- Total diameter (tumor + leg) (HT1080 tumors; Day 5): 7.5 mm
- Total diameter (tumor + leg) (HT1080 tumors; Day 5, iv Days 0, 7 and 14, PM01183 […], Compound D 0.5 mg/kg): 8.8 mm
- Total diameter (tumor + leg) (HT1080 tumors; Day 7): 7.4 mm
- Total diameter (tumor + leg) (HT1080 tumors; Day 7, iv Days 0, 7 and 14, PM01183 […], Compound D 0.5 mg/kg): 8.7 mm
- Total diameter (tumor + leg) (HT1080 tumors; Day 9): 8.1 mm
- Total diameter (tumor + leg) (HT1080 tumors; Day 9, iv Days 0, 7 and 14, PM01183 […], Compound D 0.5 mg/kg): 9.4 mm
- Total diameter (tumor + leg) (HT1080 tumors; Day 12): 7.9 mm
- Total diameter (tumor + leg) (HT1080 tumors; Day 12, iv Days 0, 7 and 14, PM01183 […], Compound D 0.5 mg/kg): 9.4 mm
- Total diameter (tumor + leg) (HT1080 tumors; Day 14): 7.7 mm
- Total diameter (tumor + leg) (HT1080 tumors; Day 14, iv Days 0, 7 and 14, PM01183 […], Compound D 0.5 mg/kg): 10.1 mm
- Total diameter (tumor + leg) (HT1080 tumors; Day 16): 8.8 mm
- Total diameter (tumor + leg) (HT1080 tumors; Day 16, iv Days 0, 7 and 14, PM01183 […], Compound D 0.5 mg/kg): 10.9 mm
- Total diameter (tumor + leg) (HT1080 tumors; Day 19): 10.2 mm
- Total diameter (tumor + leg) (HT1080 tumors; Day 19, iv Days 0, 7 and 14, PM01183 […], Compound D 0.5 mg/kg): 11.2 mm
- Total diameter (tumor + leg) (HT1080 tumors; Day 21): 11.2 mm
- Total diameter (tumor + leg) (HT1080 tumors; Day 21, iv Days 0, 7 and 14, PM01183 […], Compound D 0.5 mg/kg): 12.1 mm
- Total diameter (tumor + leg) (HT1080 tumors; Day 23): 12.2 mm
- Total diameter (tumor + leg) (HT1080 tumors; Day 23, iv Days 0, 7 and 14, Compound D 0.5 mg/kg): 13.0 mm
- Total diameter (tumor + leg) (HT1080 tumors; Day 26, iv Days 0, 7 and 14, Compound D 0.5 mg/kg): 15.0 mm
- Total diameter (tumor + leg) (HT1080 tumors; Day 27): 13.2 mm
- Total diameter (tumor + leg) (HT1080 tumors; Day 28, iv Days 0, 7 and 14, Compound D 0.5 mg/kg): 18.0 mm
- Total diameter (tumor + leg) (HT1080 tumors; Day 30): 14.6 mm
- Total diameter (tumor + leg) (HT1080 tumors; Day 33): 16.3 mm
- Total diameter (tumor + leg) (HT1080 tumors; Day 35): 18.0 mm
- MTMD [2]: 0.5 mg/kg
- GI50 [3]: 9.88 nM
- TGI [3]: 1.95E−08 Molar
- CC50 [3]: 53.3 nM
- GI50 [4]: 10.3 nM
- TGI [4]: 2.34E−08 Molar
- CC50 [4]: > 130 nM
- GI50 [5]: 20.8 nM
- TGI [5]: 2.21E−08 Molar
- CC50 [5]: 24.7 nM
- GI50 [6]: 12.5 nM
- TGI [6]: 2.86E−08 Molar
- CC50 [6]: > 130 nM
